Reference: patent US20020160091A1, “Acesulfame salt, process for its preparation and its use” (priority 2001, published 2002)

Key:
[1] = known property named for comparison; cited from earlier work
[2] = known property named for comparison; cited from earlier work; remark: listed apart in the source
[3] = compared with acesulfame potassium salt

In the case of `CC1=CC(=O)NS(=O)(=O)O1.N` [acesulfame ammonium salt], the “difference found by the testers in extensive taste tests” value (acesulfame ammonium versus acesulfame potassium) is reported as “no difference was found”, the sweet taste [3] is reported as “exactly the same pleasant sweet taste as the acesulfame potassium salt” and the sweetening power [3] is reported as “the same sweetening power as the acesulfame potassium salt”. The sweetness profile [3] was “exactly the same sweetness profile”.
In the case of `CC(=O)O.N` [ammonium acetate salt, ammonium acetate], the “hygroscopicity (comparison salt)” value [1] is listed as “hygroscopic”.
In the case of `Cl.N` [ammonium chloride salt, ammonium chloride], the “salty-bitter taste (comparison salt)” value [2] is listed as “salty-bitter”.
